Drawing on PubChem BioAssay AID2005 (Sanford-Burnham Center for Chemical Genomics, 2009), this text covers inhibition for 65 molecules.

The source made the active and inactive calls.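 How the source made its calls: active means plate Z score at or below -3, or inhibition of at least 30% at 20 µM; inactive means the rest.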

The nature of the experiment: EGFP reporter destabilization counter-screen – F442A EGFP cells, fluorescence, counter-screen for p/CIP destabilizer project, dose response (AID 2005).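 Further: cells express EGFP alone from a CMV promoter as a counter screen for p/CIP-EGFP.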 To be noted: F442A EGFP cells, EGFP fluorescence, 16 h, stronger effect = higher value.

Regarding `CCOC(=O)C1CCN(C(=O)c2cc(OCC)c(OCC)c(OCC)c2)CC1`, the inhibition – broadly, the change of the read-out against control, counted positive when it falls – is 10.4% (EGFP decrease, at 10 µM) and 24.3% (inactive) (at 20 µM).
Regarding `O=CN1CCC(=O)N(Cc2ccccc2)c2ccccc21`, the inhibition reads like this: (EGFP decrease, at 10 µM) 33.4%; (at 20 µM) 23.1% (inactive).
On the same counts, the results for `CCCC(C)C1(CC)C(=O)NC(=Nc2ccc(F)cc2)NC1=O` (stereo not given) are 37.5% and 27.3% (inactive).
Take `CCC1=[N+]([O-])C(C)(/C(C)=N\O)N(O)C1(C)C` (stereo not given): the inhibition runs as follows: (EGFP decrease, at 10 µM) -2.6%; (at 20 µM) -11% (inactive).
For the molecule `Cn1c(C(=O)NCc2cccnc2)cc2sc(Cl)cc21`, the inhibition by setting is: (EGFP decrease, at 10 µM) 28.8%; (at 20 µM) 32.9%.
For the molecule `c1ccc(C2CC3CC4(CCCC4)N2O3)cc1` (stereo not given), the inhibition (EGFP decrease, at 10 µM) was 17.2% and the inhibition (at 20 µM) is -10.7% (inactive).
On the same counts, the results for `N#CCSCC(=O)Nc1ccc(F)cc1` are 4.7% and 4% (inactive).
On the same counts, the results for `Cc1nc2ccccc2c(=O)n1-c1ccc(Cl)c(Cl)c1` are 12.7% and 12.7% (inactive).
Consider `CC(C)(C)c1cc(Cc2ccccc2)[nH]n1`, for which the inhibition reads like this: (EGFP decrease, at 10 µM) -3.7%; (at 20 µM) 35.1%.
On the same counts, the results for `COc1ccccc1CNC(=O)CCCC(=O)n1ncc2cc(C)ccc21` are -25.7% and 20.2% (inactive).
On to `Cn1c(NCc2ccco2)nc2c1c(=O)n(Cc1ccc(Cl)cc1)c(=O)n2C`, for which the inhibition (EGFP decrease, at 10 µM) is 17.1% and the inhibition (at 20 µM) is 20.5% (inactive).
Turning to `Cc1cccc(C)c1NC(=O)c1ccccc1C(=O)O`, the inhibition (EGFP decrease, at 10 µM) was found to be 18.1% and the inhibition (at 20 µM) is 20.4% (inactive).
For `COc1ccccc1N1CCN(C(=O)C(CC(C)C)NC(=O)C2CCCCC2)CC1` (stereo not given), the inhibition is -31.4% (EGFP decrease, at 10 µM) and 6% (inactive) (at 20 µM).
In the case of `NC(=O)c1nsc(C(=O)N(CC(=O)NC2CCCC2)c2ccc(F)c(Cl)c2)c1N`, the inhibition (EGFP decrease, at 10 µM) was -4.6% and the inhibition (at 20 µM) is 15.2% (inactive).
Turning to `O=S(=O)(Nc1cc(Sc2ncn[nH]2)c(O)c2ccccc12)c1ccccc1`, the inhibition (EGFP decrease, at 10 µM) stood at 38.3% and the inhibition (at 20 µM) is 2.2% (inactive).
With `COc1ccc(S(=O)(=O)N2c3ccccc3OCC2c2ccccc2)cc1` (stereo not given), the inhibition is, setting by setting: (EGFP decrease, at 10 µM) -12.8%; (at 20 µM) 1.8% (inactive).
With `Cc1ccc(S(=O)(=O)Nc2cc(C(C)C)c(O)cc2C)cc1`, the inhibition is -16.2% (EGFP decrease, at 10 µM) and -4.5% (inactive) (at 20 µM).
With `CCN1CCN(CCNC(=O)Nc2ccc([N+](=O)[O-])cc2)CC1`, the inhibition (EGFP decrease, at 10 µM) is -0.7% and the inhibition (at 20 µM) is 6.6% (inactive).
Consider `CC1(C)OC(=O)C(=CNC(CCC(N)=O)C(=O)O)C(=O)O1` (stereo not given), for which the inhibition (EGFP decrease, at 10 µM) is -1.3% and the inhibition (at 20 µM) was 15.1% (inactive).
On the same counts, the results for `O=C(COC(=O)c1cnccn1)c1ccc(OC(=O)c2ccccc2)cc1` are 21% and 17% (inactive).
Regarding `CCN1CCN(Cc2ccc(NC(=O)c3cc(NC(=O)c4cncc(-c5ccc(C#N)cc5)c4)cc(OC)c3)cc2C(F)(F)F)CC1`, the inhibition runs as follows: (EGFP decrease, at 10 µM) 3%; (at 20 µM) 11.7% (inactive).
Consider `Cc1c(N=NC2=C(O)CCCC2=O)c(=O)n(-c2ccccc2)n1C`, for which the inhibition was 6.5% (EGFP decrease, at 10 µM) and 21.3% (inactive) (at 20 µM).
`COc1cccc2[nH]c(C(=O)NCCc3ccccc3)cc12`: the inhibition (EGFP decrease, at 10 µM) came out at 4.4% and the inhibition (at 20 µM) was 17.4% (inactive).
As to `COc1ccc(CNC(=O)C(c2ccc(C)o2)N(Cc2cccs2)C(=O)Cc2cccs2)cc1` (stereo not given), the inhibition (EGFP decrease, at 10 µM) worked out at 33.3% and the inhibition (at 20 µM) is 25.5% (inactive).
With `O=C(CSc1ccc(Cl)cc1)OCc1nnc(-c2ccccc2)o1`, the inhibition (EGFP decrease, at 10 µM) was determined as 7.2% and the inhibition (at 20 µM) is 13.1% (inactive).
For `CN(c1ccc(C(=O)Nc2ccccn2)cc1)S(=O)(=O)c1ccccc1`, the inhibition (EGFP decrease, at 10 µM) was found to be 11.8% and the inhibition (at 20 µM) is 9% (inactive).
Consider `Cc1ccc(S(=O)(=O)NCC(C)NS(=O)(=O)c2ccc(C)cc2)cc1` (stereo not given), for which the inhibition by setting is: (EGFP decrease, at 10 µM) 34.7%; (at 20 µM) -7.7% (inactive).
`Fc1ccc(CNCCc2ccccc2)cc1`: the inhibition (EGFP decrease, at 10 µM) was found to be 21.5% and the inhibition (at 20 µM) was -9.1% (inactive).
For `C=CCn1c(SCCN2C(=O)c3ccccc3C2=O)nc2scc(-c3ccccc3)c2c1=O`, the inhibition is 30.3% (EGFP decrease, at 10 µM) and 0.6% (inactive) (at 20 µM).
On the same counts, the results for `COc1ccccc1NC(=O)CSc1nncn1-c1cccnc1` are 4.7% and 8% (inactive).
As for `COc1ccccc1OCc1ccc(C(=O)n2nc(C)c(Cl)c2C)o1`, the inhibition is, setting by setting: (EGFP decrease, at 10 µM) -1.3%; (at 20 µM) 2.6% (inactive).
On the same counts, the results for `O=c1c2ccccc2[nH]c2ccccc12` are 13.8% and 18.3% (inactive).
On the same counts, the results for `CCC1=C(OC(=O)N(CC)CC)N2C(=O)OC(=NCC3CC3)[C@]2(C)[C@H]2C1=CC[C@H]1C(=O)N(CC)C(=O)[C@H]12` are -7.5% and -27.5% (inactive).
For `Cc1ccc(/C=C/C(=O)c2ccc(N3CCOCC3)cc2)s1`, the inhibition (EGFP decrease, at 10 µM) was determined as 8.3% and the inhibition (at 20 µM) was -1.4% (inactive).
`O=C(OCC(=O)N1CCC(Cc2ccccc2)CC1)c1ccccc1`: the inhibition was -1.5% (EGFP decrease, at 10 µM) and -16% (inactive) (at 20 µM).
On the same counts, the results for `CC(=O)Nc1ccc(NC2=C(Cl)C(=O)c3ccccc3C2=O)cc1` are 3% and 0.6% (inactive).
Regarding `N/C(Cc1ccc([N+](=O)[O-])cc1)=N\OC(=O)COc1ccc2ccccc2c1`, the inhibition is, setting by setting: (EGFP decrease, at 10 µM) 7%; (at 20 µM) -7.4% (inactive).
On the same counts, the results for `COc1cc(CNCCCO)ccc1OCC(=O)NC(C)(C)C` are -2.3% and 22.9% (inactive).
For `COCCn1c(SCC(=O)Nc2cc(C)on2)nnc1C(C)C`, the inhibition was -1.7% (EGFP decrease, at 10 µM) and 0.9% (inactive) (at 20 µM).
On the same counts, the results for `Cc1ccc(OCC(=O)N2CCN(C(=O)c3ccco3)CC2)cc1` are 23.1% and 8.2% (inactive).
Take `N#Cc1cn(CC(=O)NCCc2c[nH]c3ccccc23)c2ccccc12`: the inhibition is 10.9% (EGFP decrease, at 10 µM) and -0.3% (inactive) (at 20 µM).
Take `Cc1ccc(NC(=O)CC2C(=O)NC3CCCCC3N2C(=O)c2ccc(F)cc2)cc1C` (stereo not given): the inhibition is 12.9% (EGFP decrease, at 10 µM) and 24.7% (inactive) (at 20 µM).
`CC(=O)c1c(N2CCN(Cc3ccc4c(c3)OCO4)CC2)nc(=S)n(-c2ccccc2)c1C`: the inhibition was 7.3% (EGFP decrease, at 10 µM) and 23.7% (inactive) (at 20 µM).
Regarding `CC(C)Cc1ccc(C(C)C(N)=NCCc2ccccc2)cc1` (stereo not given), the inhibition is, setting by setting: (EGFP decrease, at 10 µM) -6.4%; (at 20 µM) -4.2% (inactive).
For `O=C(c1ccccc1F)N(Cc1cccnc1)Cc1cc2cc3c(cc2[nH]c1=O)OCCO3`, the inhibition (EGFP decrease, at 10 µM) was 4.2% and the inhibition (at 20 µM) was -4.2% (inactive).
`Cc1ccc(Cn2c(SCC(C)C)nc3c2c(=O)[nH]c(=O)n3C)cc1`: the inhibition by setting is: (EGFP decrease, at 10 µM) 6.3%; (at 20 µM) 20.7% (inactive).
For the molecule `Cc1cc(C)n(/N=C/c2ccccc2O)c(=O)c1`, the inhibition is 20.8% (EGFP decrease, at 10 µM) and 9.9% (inactive) (at 20 µM).
As to `CCOC(=O)N1CCN(S(=O)(=O)c2cc(OCC)ccc2OCC)CC1`, the inhibition (EGFP decrease, at 10 µM) is -19.2% and the inhibition (at 20 µM) was 5.4% (inactive).
On the same counts, the results for `CCN(CC)C(=O)c1oc2ccc(S(=O)(=O)N3CC(C)CC(C)C3)cc2c1C` (stereo not given) are 29.3% and 49.5%.
Turning to `CC(C)(C)NC(=O)c1ccc2c(c1)N(CC(=O)N1CCN(c3ccc(F)cc3)CC1)C(=O)C(C)(C)O2`, the inhibition is, setting by setting: (EGFP decrease, at 10 µM) 8.7%; (at 20 µM) 12.7% (inactive).
As for `CC(C)CC(=O)Nc1ncnc2c1C(=O)CC(C)(C)C2`, the inhibition is 11.5% (EGFP decrease, at 10 µM) and 12.2% (inactive) (at 20 µM).
With `Fc1ccc(NC(=S)NCc2cccnc2)cc1`, the inhibition (EGFP decrease, at 10 µM) was determined as 28.3% and the inhibition (at 20 µM) is 8.7% (inactive).
Take `COC(=O)CSc1[nH]c(=O)cc(C)c1C#N`: the inhibition by setting is: (EGFP decrease, at 10 µM) 26.6%; (at 20 µM) 49.5%.
`COC(=O)c1cccc(C23CC4(C2)[C@H](CN(C)[C@@H]4c2ccccc2)C3c2ccc(C(F)(F)F)cc2)c1` (stereo not given in full): the inhibition is, setting by setting: (EGFP decrease, at 10 µM) 8%; (at 20 µM) 8.1% (inactive).
On the same counts, the results for `Cc1ccc2[nH]c3c(c2c1)CCCC3=O` are 28.5% and 27.9% (inactive).
Take `O=C(NC(=S)NCc1ccccc1)c1ccc(Br)o1`: the inhibition is 23.8% (EGFP decrease, at 10 µM) and 19.8% (inactive) (at 20 µM).
For the molecule `Cc1ccc(-n2ncc(Br)c(Br)c2=O)cc1`, the inhibition runs as follows: (EGFP decrease, at 10 µM) 9.4%; (at 20 µM) -1.3% (inactive).
On to `CCc1ccc(NC(=O)CCn2c(=O)oc3ccccc32)cc1`, for which the inhibition is, setting by setting: (EGFP decrease, at 10 µM) 11.9%; (at 20 µM) 3.3% (inactive).
As to `CCOC(=O)N1CCN(c2ccc(C(C)=O)cc2F)CC1`, the inhibition was 10.1% (EGFP decrease, at 10 µM) and -6.2% (inactive) (at 20 µM).
On the same counts, the results for `O=C1C2C3C=CC(C2C(=O)N1c1cccc(O)c1)C1C2C(=O)N(c4cccc(O)c4)C(=O)C2C31` (stereo not given) are -3% and 12.3% (inactive).
Regarding `CCOC(=O)c1ccc(COC(=O)c2nonc2N)cc1`, the inhibition was 4.5% (EGFP decrease, at 10 µM) and 21.1% (inactive) (at 20 µM).
Consider `CCN1C(=O)/C(=C2\C=Cc3cc(C)ccc3N2CC)OC1=S`, for which the inhibition is -35.7% (EGFP decrease, at 10 µM) and -30.8% (inactive) (at 20 µM).
`Cc1cccc(N(CC(=O)NCCc2ccccc2)C(=O)c2csnn2)c1`: the inhibition (EGFP decrease, at 10 µM) was found to be 4.8% and the inhibition (at 20 µM) was 17.2% (inactive).
Consider `Nc1cnn(C2OC(CO)C(O)C2O)c(=O)n1` (stereo not given), for which the inhibition (EGFP decrease, at 10 µM) was determined as 18.6% and the inhibition (at 20 µM) was 22.1% (inactive).
On the same counts, the results for `CSCCC(NC(=O)C1CCC(C)CC1)C(=O)Nc1ccc(NC(C)=O)cc1` (stereo not given) are 24.8% and 18.5% (inactive).
